Laboratory results taken from ChEMBL document CHEMBL5537201, “Discovery of Unique Bis-Substituted Aromatic Amide Derivatives as Novel Highly Potent Antibiotics for Combating Methicillin-Resistant Staphylococcus aureus (MRSA)” (J Med Chem, 2024).
≈ marks a conversion by molar mass, not a printed value. Calls of active or inactive are those of the source. The calls are words filed in the database; no cut-off is given here.

What was measured:
[1] = Toxicity in BALB/c mouse assessed as effect on body weight at 50 mg/kg, iv measured upto 8 days; type: organism-based; conditions: in vivo, 192 h, time < 8 day
Cell membrane [2] = assay: Induction of inner membrane permeabilization in methicillin resistant Staphylococcus aureus clinical isolate MRS153 assessed as disruption of cell membrane by measuring rightward shift measured after by PI staining based flow cytometry analysis; type: cell membranes
Peptidoglycan = assay: Binding affinity to Staphylococcus aureus ATCC6538 peptidoglycan assessed as change in MIC at upto 256 ug/ml measured after 22 hrs; conditions: dose <= 256.0 µg/ml
Staphylococcus aureus [3] = assay: Antibacterial activity against methicillin-resistant Staphylococcus aureus clinical isolate MRS153 infected in C57BL/6N mouse model assessed as improvement in survival rate at 3.125 to 12.5 mg/kg, iv administered as single dose measured for 7 days; type: functional, organism-based; conditions: dose 3.125-12.5 mg/kg, time 7.0 day
Staphylococcus aureus [4] = assay: Antimicrobial activity against methicillin resistant Staphylococcus aureus clinical isolate MRS153 assessed as increase in ROS levels measured upto 180 mins in presence of 2,2'-bipyridyl and thiourea by H2DCFDA probe based flow cytometry; type: functional, organism-based
Cell membrane [5] = assay: Induction of cytoplasmic membrane depolarization in Staphylococcus aureus ATCC6538 assessed as increase in fluorescence intensity measured upto 120 mins by DiSC3(5) dye based fluorescence method; type: cell membranes
[6] = Selectivity index, ratio of IC50 for African green monkey Vero E6 cells to MIC for Staphylococcus aureus ATCC6538; type: toxicity; conditions: read-out: Selectivity Index
Cell membrane [7] = assay: Induction of inner membrane permeabilization in methicillin resistant Staphylococcus aureus clinical isolate MRS153 assessed as increase in […] fluorescence at 5 ug/ml by PI staining based analysis; type: cell membranes; conditions: dose 5.0 µg/ml
Staphylococcus aureus [8] = assay: Antimicrobial activity against Staphylococcus aureus ATCC6538 assessed as proton dynamic dissipation at pH 5 to 11; type: functional, organism-based
Staphylococcus aureus [9] = assay: Antimicrobial activity against methicillin resistant Staphylococcus aureus clinical isolate MRS152 assessed as reduction in bacterial growth incubated for 24 hrs by two-fold broth dilution method; type: functional
Streptomyces albus = assay: Antimicrobial activity against Streptomyces albus SHBC D11158 assessed as reduction in bacterial growth incubated for 24 hrs by two-fold broth dilution method; type: functional
Staphylococcus aureus [10] = assay: Induction of drug resistance in Staphylococcus aureus ATCC6538 assessed as change in MIC measured after 10 passages; type: functional
Staphylococcus aureus [11] = assay: In vivo antibacterial activity against methicillin-resistant Staphylococcus aureus clinical isolate MRS153 infected in C57BL/6N mouse model assessed as reduction in bacterial load in liver at 3.125 to 12.5 mg/kg, iv measured after 24 hrs; type: functional, organism-based; conditions: dose 3.125-12.5 mg/kg

With O=C(CCC(F)(F)F)N(Cc1cc2ccccc2s1)c1cc(-c2noc(C(F)(F)F)n2)ccc1O the Activity [1] was “Non-Toxic”, the Activity (Cell membrane [2]) was “Active” and the Activity (Peptidoglycan) was “inactive”. The Activity (Staphylococcus aureus [3]) was “Active”, the Activity (Staphylococcus aureus [4]) was “inactive” and the Activity (Cell membrane [5]) was “Active”. The selectivity ratio [6] was over 100, the Activity (Cell membrane [7]) was “Active” and the Activity (Staphylococcus aureus [8]) was “Active”. The MIC (Staphylococcus aureus [9]) was 1 µg/mL (≈ 1.94 µM), the MIC (Streptomyces albus) was under 0.5 µg/mL and the Activity (Staphylococcus aureus [10]) was “inactive”. The Activity (Staphylococcus aureus [11]) was “Active”.
